# Molecular target: KRas (Homo sapiens, UniProt P01116, G12C)
# Experiment: KRas degradation in NCI-H2030 cells by Western blot, normalized to GAPDH (data of Table 14)
# Assay type: cell-based
# Parameters: host or cells: NCI-H2030
# Settings: for Percent Degradation at Indicated Concentration (μM): H2030; for Dmax: NCI-H2030
# Protocol: Cell Lines, Antibodies, and Reagents. NCI-H2030 (CRL-5914) and SW1573 (CRL-2170) cells were purchased from ATCC. Both cell lines are homozygous for the G12C mutation in KRas. NCI-H2030 cells were cultured in RPMI-1640 medium containing 1% penicillin-streptomycin and 10% fetal bovine serum (FBS). SW1573 cells were cultured in DMEM containing 1% penicillin-streptomycin and 10% FBS. The KRas detection antibody (Cat. No. LS-C175665) was purchased from LifeSpan Biosciences and was used at a dilution of 1:2000. GAPDH was detected using an antibody purchased from Cell Signaling Technology (Cat. No. 5174) and was diluted 1:3000. Secondary anti-mouse and anti-rabbit detection antibodies were purchased from Cell Signaling Technology (Cat. Nos. 7076 and 7074, respectively).
# Compound Treatment and Western Blotting of the Data of Table 14. Either NCI-H2030 or SW1573 cells were plated in 12-well plates and allowed to adhere overnight at 37° C. in an incubator containing 5% CO2. The following day, the medium was replaced with the appropriate medium lacking FBS to induce starvation. Cells were returned to the incubator for an additional 24 hours following media exchange. […] Cells were treated with VHL-based compounds for 24 hours and all other compounds for 72 hours. Following treatment, cells were lysed in RIPA buffer (Thermo Fisher Cat. No. 89900) containing phosphatase (Thermo Fisher Cat. No. 1861277) and protease (Thermo Fisher Cat. No. 78429) inhibitor cocktails. Lysates were cleared at 13,000 rpm for 15 minutes and supernatants were assayed for total protein concentration using the Pierce BCA assay system (Thermo Fisher Cat. No. 23225). For each sample, 10 μg total protein was resolved on a 12% Bis-Tris gel and then transferred to a nitrocellulose membrane. After blocking in 3% BSA in TBST (Tris-buffered Saline with 0.1% Tween-20) for 1 hour at room temperature, membranes were probed with the primary antibody (LS Bio Cat. No. LS-C175665) overnight at 4° C. After incubation with the secondary antibody, the following day membranes were visualized using the SuperSignal™ West Femto substrate (Thermo Fisher Cat. No. 34095). The KRas signal in each lane was normalized to GAPDH and percent degradation was either estimated as less than 25% by visual inspection (C in Table 13) or quantitated relative to the DMSO control lane using BIO-RAD Image Lab 5.2.1, and all data was plotted using GraphPad PRISM 6.07.
# DC50 is the half-maximal degradation concentration—i.e., the concentration at which 50% degradation is observed. DMax is the maximum degradation efficacy is achieved—i.e., the maximal degradation observed) degradation data.
smiles,measurement,setting,value
"CC(=O)N1CCN(c2nc(NCCC(=O)N(C)CCOCCOCCOCC(=O)N[C@H](C(=O)N3C[C@H](O)C[C@H]3C(=O)N[C@@H](C)c3ccc(-c4scnc4C)cc3)C(C)(C)C)nc3c(F)c(-c4cc(O)cc5ccccc45)c(Cl)cc23)CC1 [compound 202, (2S,4R)-1-((2S)-18-((4-(4-acetylpiperazin-1-yl)-6-chloro-8-fluoro-7-(3-hydroxynaphthalen-1-yl)quinazolin-2-yl)amino)-2-(tert-butyl)-15-methyl-4,16-dioxo-6,9,12-trioxa-3,15-diazaoctadecanoyl)-4-hydroxy-N-((S)-1-(4-(4-methylthiazol-5-yl)phenyl)ethyl)pyrrolidine-2-carboxamide]",Percent Degradation at Indicated Concentration (μM),0.3 μM,C (Percent Degradation: C ≤ 35)
same,Percent Degradation at Indicated Concentration (μM),1 μM,C (Percent Degradation: C ≤ 35)
same,Percent Degradation at Indicated Concentration (μM),3 μM,C (Percent Degradation: C ≤ 35)
same,Dmax,,≤ 35%
CCC(=O)N1CCN(c2nc(NCCC(=O)N(C)CCOCCOCCOCCNc3cccc4c3C(=O)N(C3CCC(=O)NC3=O)C4=O)nc3c(F)c(-c4cc(O)cc5ccccc45)c(Cl)cc23)CC1 (stereo not shown) [compound 44],Percent Degradation at Indicated Concentration (μM): 0.3,"H2030 cells, 0.3 μM",C (C ≤ 35)
same,Percent Degradation at Indicated Concentration (μM): 1,"H2030 cells, 1 μM",C (C ≤ 35)
same,Percent Degradation at Indicated Concentration (μM): 3,"H2030 cells, 3 μM",C (C ≤ 35)
same,Dmax,H2030 cells,≤ 35%
"C=CC(=O)N1CCN(c2nc(NCCC(=O)N(C)CCOCCOCCNc3cccc4c3C(=O)N(C3CCC(=O)NC3=O)C4=O)nc3c(F)c(-c4cc(O)cc5ccccc45)c(Cl)cc23)CC1 (stereo not shown) [compound 57, 3-((4-(4-acryloylpiperazin-1-yl)-6-chloro-8-fluoro-7-(3-hydroxynaphthalen-1-yl)quinazolin-2-yl)amino)-N-(2-(2-(2-((2-(2,6-dioxopiperidin-3-yl)-1,3-dioxoisoindolin-4-yl)amino)ethoxy)ethoxy)ethyl)-N-methylpropanamide]",Percent Degradation at Indicated Concentration (μM): 0.3,"H2030 cells, 0.3 μM",C (C ≤ 35)
same,Percent Degradation at Indicated Concentration (μM): 1,"H2030 cells, 1 μM",C (C ≤ 35)
same,Percent Degradation at Indicated Concentration (μM): 3,"H2030 cells, 3 μM",C (C ≤ 35)
same,Dmax,H2030 cells,≤ 35%
"C=CC(=O)N1CCN(c2nc(NCCC(=O)N(C)CCOCCNC(=O)c3ccc(NC(=O)[C@@H]4N[C@@H](CC(C)(C)C)[C@](C#N)(c5ccc(Cl)cc5F)[C@H]4c4cccc(Cl)c4F)c(OC)c3)nc3c(F)c(-c4c(O)cccc4F)c(Cl)cc23)CC1 (atropisomer, axis not shown) [compound 307, (2R,3S,4R,5S)-N-(4-((2-(2-(3-((4-(4-acryloylpiperazin-1-yl)-6-chloro-8-fluoro-7-((S)-2-fluoro-6-hydroxyphenyl)quinazolin-2-yl)amino)-N-methylpropanamido)ethoxy)eth-yl)carbamoyl)-2-methoxyphenyl)-3-(3-chloro-2-fluorophenyl)-4-(4-chloro-2-fluorophenyl)-4-cyano-5-neopentylpyrrolidine-2-carboxamide]",Percent Degradation at Indicated Concentration (μM),0.3 μM,C (Percent Degradation: C ≤ 35)
same,Percent Degradation at Indicated Concentration (μM),1 μM,C (Percent Degradation: C ≤ 35)
same,Percent Degradation at Indicated Concentration (μM),3 μM,C (Percent Degradation: C ≤ 35)
same,Dmax,,≤ 35%
"CCC(=O)N1CCN(c2nc(NCCC(=O)N(C)CCOc3ccc4c(c3)C(=O)N(C3CCC(=O)NC3=O)C4=O)nc3c(F)c(-c4cc(O)cc5ccccc45)c(Cl)cc23)CC1 (stereo not shown) [compound 46, 3-((6-chloro-8-fluoro-7-(3-hydroxynaphthalen-1-yl)-4-(4-propionylpiperazin-1-yl)quinazolin-2-yl)amino)-N-(2-((2-(2,6-dioxopiperidin-3-yl)-1,3-dioxoisoindolin-5-yl)oxy)ethyl)-N-methylpropanamide]",Percent Degradation at Indicated Concentration (μM): 0.3,"H2030 cells, 0.3 μM",C (C ≤ 35)
same,Percent Degradation at Indicated Concentration (μM): 1,"H2030 cells, 1 μM",C (C ≤ 35)
same,Percent Degradation at Indicated Concentration (μM): 3,"H2030 cells, 3 μM",C (C ≤ 35)
same,Dmax,H2030 cells,≤ 35%
"CCC(=O)N1CCN(c2nc(NCCC(=O)N(C)CCOCCOCCOCCOCCOc3cc(-c4scnc4C)ccc3CNC(=O)[C@@H]3C[C@@H](O)CN3C(=O)C(c3cc(C)no3)C(C)C)nc3c(F)c(-c4cc(O)cc5ccccc45)c(Cl)cc23)CC1 (stereo partly drawn) [compound 336, (2S,4R)-N-(2-((18-((6-chloro-8-fluoro-7-(3-hydroxynaphthalen-1-yl)-4-(4-propionylpiperazin-1-yl)quinazolin-2-yl)amino)-15-methyl-16-oxo-3,6,9,12-tetraoxa-15-azaoctadecyl)oxy)-4-(4-methylthiazol-5-yl)benzyl)-4-hydroxy-1-(3-methyl-2-(3-methylisoxazol-5-yl)butanoyl)pyrrolidine-2-carboxamide]",Percent Degradation at Indicated Concentration (μM): 0.3,"H2030 cells, 0.3 μM",C (C ≤ 35)
same,Percent Degradation at Indicated Concentration (μM): 1,"H2030 cells, 1 μM",C (C ≤ 35)
same,Percent Degradation at Indicated Concentration (μM): 3,"H2030 cells, 3 μM",C (C ≤ 35)
same,Dmax,H2030 cells,≤ 35%
C=CC(=O)N1CCN(c2nc(Nc3ccc(OCCOCCOCCOCCOCC(=O)N[C@H](C(=O)N4C[C@H](O)C[C@H]4C(=O)N[C@@H](C)c4ccc(-c5scnc5C)cc4)C(C)(C)C)cc3)nc3c(F)c(-c4cc(O)cc5ccccc45)c(Cl)cc23)CC1 [compound 484],Percent Degradation at Indicated Concentration (μM),0.3 μM,C (Percent Degradation: C ≤ 35)
same,Percent Degradation at Indicated Concentration (μM),1 μM,C (Percent Degradation: C ≤ 35)
same,Percent Degradation at Indicated Concentration (μM),3 μM,C (Percent Degradation: C ≤ 35)
same,Dmax,,≤ 35%
"CCC(=O)N1CCN(c2nc(NCCC(=O)N(C)CCOCCOCCOc3cc(-c4scnc4C)ccc3CNC(=O)[C@@H]3C[C@@H](O)CN3C(=O)[C@@H](c3cc(C)no3)C(C)C)nc3c(F)c(-c4cc(O)cc5ccccc45)c(Cl)cc23)CC1 [compound 332, (2S,4R)-N-(2-(2-(2-(2-(3-((6-chloro-8-fluoro-7-(3-hydroxynaphthalen-1-yl)-4-(4-propionylpiperazin-1-yl)quinazolin-2-yl)amino)-N-methylpropanamido)ethoxy)ethoxy)-ethoxy)-4-(4-methylthiazol-5-yl)benzyl)-4-hydroxy-1-((R)-3-methyl-2-(3-methylisoxazol-5-yl)butanoyl)pyrrolidine-2-carboxamide]",Percent Degradation at Indicated Concentration (μM): 0.3,"H2030 cells, 0.3 μM",C (C ≤ 35)
same,Percent Degradation at Indicated Concentration (μM): 1,"H2030 cells, 1 μM",C (C ≤ 35)
same,Percent Degradation at Indicated Concentration (μM): 3,"H2030 cells, 3 μM",C (C ≤ 35)
same,Dmax,H2030 cells,≤ 35%
"C=CC(=O)N1CCN(c2nc(NCCC(=O)N(C)CCOCCOCCOc3cc(-c4scnc4C)ccc3CNC(=O)[C@@H]3C[C@@H](O)CN3C(=O)[C@H](c3cc(C)no3)C(C)C)nc3c(F)c(-c4c(O)cccc4F)c(Cl)cc23)CC1 (atropisomer, axis not shown) [compound 130, (25,4R)-N-(2-(2-(2-(2-(3-(((S)-4-(4-acryloylpiperazin-1-yl)-6-chloro-8-fluoro-7-(2-fluoro-6-hydroxyphenyl)quinazolin-2-yl)amino)-N-methylpropanamido)ethoxy)ethoxy)ethoxy)-4-(4-methylthiazol-5-yl)benzyl)-4-hydroxy-1-((S)-3-methyl-2-(3-methylisoxazol-5-yl)butanoyl)pyrrolidine-2-carboxamide]",Percent Degradation at Indicated Concentration (μM),0.3 μM,C (Percent Degradation: C ≤ 35)
same,Percent Degradation at Indicated Concentration (μM),1 μM,C (Percent Degradation: C ≤ 35)
same,Percent Degradation at Indicated Concentration (μM),3 μM,C (Percent Degradation: C ≤ 35)
same,Dmax,,≤ 35%
"C=CC(=O)N1CCN(c2nc(NCCC(=O)N(C)CCOCCOCCOCCOCC(=O)N[C@H](C(=O)N3C[C@H](O)C[C@H]3C(=O)N[C@@H](C)c3ccc(-c4scnc4C)cc3)C(C)(C)C)nc3c(F)c(-c4cc(O)cc5ccccc45)c(Cl)cc23)CC1 (racemic) [compound 195, (2RS,4SR)-1-((RS)-21-((4-(4-acryloylpiperazin-1-yl)-6-chloro-8-fluoro-7-((RS)-3-hydroxynaphthalen-1-yl)quinazolin-2-yl)amino)-2-(tert-butyl)-18-methyl-4,19-dioxo-6,9,12,15-tetraoxa-3,18-diazahenicosanoyl)-4-hydroxy-N-((RS)-1-(4-(4-methylthiazol-5-yl)phenyl)ethyl)pyrrolidine-2-carboxamide]",Percent Degradation at Indicated Concentration (μM),3 μM,C (Percent Degradation: C ≤ 35)

# Reference: US12552783B2, “Modulators of proteolysis and associated methods of use” (Arvinas Operations, Inc., priority 2018, dated 2026)
